pIC50: −log10 of the molar value. Values belong to the molecule of their own block, whether it stands above or below them.
Legend:
IL-6 = test: Inhibition of R848-induced IL-6 release in human PBMCs, IL-6 ELISA; assay type: cell-based; details: PBMC, compound 24 hours, then R848 10 µg/mL 5 hours
Description: Example 3: Detection of inhibition of R848-induced IL-6 release
Cryopreserved human PBMCs (Milestone® Biotechnologies, PB010C-W) were thawed and resuspended in RPMI-1640 medium (Gibco, 22400-105) supplemented with 10% fetal bovine serum (Gibco, 10099-141), 100 U/mL penicillin, and 100 µg/mL streptomycin (Gibco, 15140122). Subsequently, 190 µL of the PBMC suspension was added to each well of 96-well clear cell culture plates (Corning, 3599) to achieve a density of 1×10^5 cells/well. The cell plates were incubated at 37°C in a 5% CO2 incubator for 30 minutes. Then, 5 µL of diluted compound solution was added to the corresponding cell-seeded wells to achieve final concentrations ranging from 0.046 to 3,000 nM. The final concentration of DMSO was 0.1%. After the compound-treated cell plate was incubated at 37°C in a 5% CO2 incubator for 24 hours, 5 µL of R848 (MCE, HY-13740) was added to achieve a final concentration of 10 µg/mL. The cell plates were incubated again at 37°C in a 5% CO2 incubator for 5 hours, then centrifuged at 1,000 rpm for 1 minute. 100 µL of the cell supernatant from each well was transferred to a new 96-well clear cell culture plate for IL-6 concentration testing.
Interleukin-6 (IL-6) ELISA assay
The IL-6 concentration in the supernatant of R848-induced human PBMCs was determined using a Human IL-6 (interleukin-6) ELISA KIT (4Bio, CHE0009-048). IL-6 standard solutions at different concentrations, ranging from 3.9 to 250 pg/mL, were prepared according to the manufacturer's instructions. 100 µL of each concentration of the IL-6 standard solution and the pre-diluted test cell supernatant samples were added separately to anti-IL-6 antibody-coated and blocked clear 96-well plates, followed by incubation at 37°C for 1.5 hours. According to the product instructions, the plates were washed, 100 µL of biotinylated antibody was added, and the plates were incubated at 37°C for 1 hour. The plates were washed, 100 µL of enzyme conjugate working solution was added. The plates were incubated at 37°C for 30 minutes, and then washed. 100 µL of chromogenic substrate was added, and the plates were incubated at 37°C for 10-20 minutes. The reaction was terminated by adding 100 µL of stop solution. After the reaction, the OD value at 450 nm was measured in absorbance mode using an Envision microplate reader (PerkinElmer). A standard curve was plotted using the corrected OD values of the various concentrations of IL-6 standard solutions. The IL-6 concentration in each cell supernatant was then determined on the basis of the corresponding concentration for the corrected OD value of the test sample on the standard curve. […] Subsequently, the IC50 value of the compound was calculated by performing non-linear curve fitting of concentration versus inhibition rate using GraphPad Prism 9.

IRAK4 [1] = biological target: T1, IRAK4 (Homo sapiens, UniProt Q9NWZ3); test: Degradation of IRAK4 in THP1 cells, Western blot; assay type: cell-based; parameters: Degradation of IRAK4 in THP1 by compound; host or cells: THP-1; details: THP-1 cells, 24 hours of incubation; for DC50: IRAK4 protein by Western blot, read-out: DC50; for Dmax: maximum degradation rate, read-out: Dmax
T1 sequence (Q9NWZ3 1-460): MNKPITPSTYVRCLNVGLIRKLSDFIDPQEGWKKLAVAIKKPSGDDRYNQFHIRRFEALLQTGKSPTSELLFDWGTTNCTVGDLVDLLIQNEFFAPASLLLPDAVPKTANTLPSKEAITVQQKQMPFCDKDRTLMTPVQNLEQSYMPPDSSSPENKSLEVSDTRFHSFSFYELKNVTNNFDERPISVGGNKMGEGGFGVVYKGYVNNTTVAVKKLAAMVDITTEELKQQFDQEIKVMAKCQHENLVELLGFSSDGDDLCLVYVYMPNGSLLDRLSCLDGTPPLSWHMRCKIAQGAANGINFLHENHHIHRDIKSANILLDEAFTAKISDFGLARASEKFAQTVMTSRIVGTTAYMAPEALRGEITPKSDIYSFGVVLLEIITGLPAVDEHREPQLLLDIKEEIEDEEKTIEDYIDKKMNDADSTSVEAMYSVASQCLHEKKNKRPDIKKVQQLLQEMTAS
In short: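 Degradation rate derived from densitometry of IRAK4 bands versus DMSO-treated controls. Read-out: anti-IRAK4 immunoblot (10% gel, 40 μg total protein per lane, BCA-normalised) of lysates from THP1 cells incubated with compound for 24 h.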

[2] = Pharmacokinetic detection in rats after intravenous injection and oral administration; assay type: in vivo, Sprague-Dawley (SD) rats; details: rat; for AUC / Cmax / half-life: in vivo, oral administration
Description: Example 4. Pharmacokinetic detection
This study was designed to investigate the pharmacokinetic properties of the compounds in rats following intravenous injection and oral administration.
Experimental protocol: Six healthy male Sprague-Dawley (SD) rats were used for each compound, randomly divided into two groups of three animals each, with body weights ranging from 180-220 g. The rats were fasted overnight (10-14 hours) prior to administration, with free access to water, and food was restored 4 hours after administration. The compounds were formulated in a vehicle consisting of 5% DMSO + 10% solutol + 85% physiological saline (w/v). […] For A170, A177, and A180, the intravenous injection group received a dose of 1 mg/kg with an administration volume of 1 mL/kg, and the oral administration group received a dose of 5 mg/kg with an administration volume of 5 mL/kg. Blank blood samples were collected prior to administration. After administration, 0.2 mL of blood was collected from the jugular vein or other suitable methods at predetermined time points (0.083 h, 0.25 h, 0.5 h, 1 h, 2 h, 4 h, 8 h, 24 h) into EDTA-K2 anticoagulant tubes, and plasma was separated by centrifugation at 6800 g for 6 minutes. After the experiment, the concentration of the compound in plasma was quantitatively detected using liquid chromatography-tandem mass spectrometry (LCMS/MS). Pharmacokinetic parameters were calculated on the basis of the plasma concentration data at different time points using Phoenix WinNonlin version 8.3.5.

IRAK4 [3] = biological target: T1, IRAK4; details: Phase I clinical studies in hidradenitis suppurativa and atopic dermatitis; cited from earlier work
[4] = oral 10 mg/kg, intravenous 2 mg/kg
[5] = oral 5 mg/kg, intravenous 1 mg/kg

Structure (SMILES): NC(=O)c1nn(-c2ccc(N3CCN(CC4CCN(c5ccc6c(c5)CN(C5CCC(=O)NC5=O)C6=O)CC4)CC3)cc2)cc1NC(=O)c1cccc(C(F)(F)F)n1 (stereo not shown) [Compound A169]
pIC50 (IL-6): > 8.00 | DC50 (IRAK4 [1]): < 100 nM | Dmax (IRAK4 [1]): > 60% | AUC ([2]; 10 mg/kg): 3520 ng·h/mL | Cmax ([2]; 10 mg/kg): 408 ng/mL | half-life ([2]; 10 mg/kg): 5 h | F [2, 4]: 16%

Structure (SMILES): NC(=O)c1nn(-c2ccc(N3CCN(CC4CCN(c5ccc6c(c5)CN(C5CCC(=O)NC5=O)C6=O)CC4(F)F)CC3)cc2)cc1NC(=O)c1cccc(C(F)(F)F)n1 (stereo not shown) [Compound A170]
pIC50 (IL-6): > 8.00 | DC50 (IRAK4 [1]): < 100 nM | Dmax (IRAK4 [1]): > 60% | AUC ([2]; 5 mg/kg): 2160 ng·h/mL | Cmax ([2]; 5 mg/kg): 285 ng/mL | half-life ([2]; 5 mg/kg): 7 h | F [2, 5]: 28%

Structure (SMILES): NC(=O)c1nn(-c2ccc(N3CCN(CCN4CCN(c5ccc6c(c5)C(=O)N(C5CCC(=O)NC5=O)C6=O)CC4)CC3)cc2)cc1NC(=O)c1cccc(C(F)(F)F)n1 (stereo not shown) [Compound A173]
pIC50 (IL-6): > 8.00 | AUC ([2]; 10 mg/kg): 1130 ng·h/mL | Cmax ([2]; 10 mg/kg): 107 ng/mL | half-life ([2]; 10 mg/kg): 21 h | F [2, 4]: 18%

Structure (SMILES): Cn1c(=O)n(C2CCC(=O)NC2=O)c2ccc(N3CCC(CN4CCN(c5ccc(-n6cc(NC(=O)c7cccc(C(F)(F)F)n7)c(C(N)=O)n6)cc5)CC4)CC3)cc21 (stereo not shown) [Compound A177]
pIC50 (IL-6): > 8.00 | DC50 (IRAK4 [1]): < 100 nM | Dmax (IRAK4 [1]): > 60% | AUC ([2]; 5 mg/kg): 1230 ng·h/mL | Cmax ([2]; 5 mg/kg): 120 ng/mL | half-life ([2]; 5 mg/kg): 8 h | F [2, 5]: 8%

Structure (SMILES): Cn1c(=O)n(C2CCC(=O)NC2=O)c2cccc(N3CCC(CN4CCN(c5ccc(-n6cc(NC(=O)c7cccc(C(F)(F)F)n7)c(C(N)=O)n6)cc5)CC4)CC3)c21 (stereo not shown) [Compound A178]
pIC50 (IL-6): > 8.00 | DC50 (IRAK4 [1]): < 100 nM | Dmax (IRAK4 [1]): > 60% | AUC ([2]; 10 mg/kg): 6560 ng·h/mL | Cmax ([2]; 10 mg/kg): 593 ng/mL | half-life ([2]; 10 mg/kg): 15 h | F [2, 4]: 30%

Structure (SMILES): Cn1c(-c2ccc(N3CCC(CN4CCN(c5ccc(-n6cc(NC(=O)c7cccc(C(F)(F)F)n7)c(C(N)=O)n6)cc5)CC4)C3)cc2)nn(C2CCC(=O)NC2=O)c1=O (stereo not shown) [Compound A187]
pIC50 (IL-6): > 8.00 | DC50 (IRAK4 [1]): < 100 nM | Dmax (IRAK4 [1]): > 60%

Structure (SMILES): Cn1c(-c2ccc(N3CCC(CN4CCN(c5ccc(-n6cc(NC(=O)c7cccc(C(F)(F)F)n7)c(C(N)=O)n6)cc5)CC4)CC3)cc2)nn(C2CCC(=O)NC2=O)c1=O (stereo not shown) [Compound A189]
pIC50 (IL-6): 7.52 to 8.00 | DC50 (IRAK4 [1]): 100 to 1000 nM | Dmax (IRAK4 [1]): > 60%

Structure (SMILES): NC(=O)c1nn(-c2ccc(N3CCN(CC4CCN(c5ccc(NC6CCC(=O)NC6=O)cc5F)CC4)CC3)cc2)cc1NC(=O)c1cccc(C(F)(F)F)n1 (stereo not shown) [Compound A195]
pIC50 (IL-6): > 8.00 | AUC ([2]; 10 mg/kg): 19300 ng·h/mL | Cmax ([2]; 10 mg/kg): 1250 ng/mL | half-life ([2]; 10 mg/kg): 15 h | F [2, 4]: 52%

Structure (SMILES): NC(=O)c1nn(-c2ccc(N3CCN(CCC4CCN(c5cccc(NC6CCC(=O)NC6=O)c5)CC4)CC3)cc2)cc1NC(=O)c1cccc(C(F)(F)F)n1 (stereo not shown) [Compound A196]
pIC50 (IL-6): > 8.00 | DC50 (IRAK4 [1]): < 100 nM | Dmax (IRAK4 [1]): > 60%

Structure (SMILES): NC(=O)c1nn(-c2ccc(N3CCN(CC4CCN(c5cccc(NC6CCC(=O)NC6=O)c5)CC4)CC3)cc2)cc1NC(=O)c1cccc(C(F)(F)F)n1 (stereo not shown) [Compound A197]
pIC50 (IL-6): 7.52 to 8.00 | DC50 (IRAK4 [1]): < 100 nM | Dmax (IRAK4 [1]): > 60%

pIC50 (IL-6): 7.52 to 8.00 | DC50 (IRAK4 [1]): 100 to 1000 nM | Dmax (IRAK4 [1]): > 60%
Structure (SMILES): NC(=O)c1nn(-c2ccc(CN3CCC4(CC3)CN(c3ccc5c(c3)C(=O)N(C3CCC(=O)NC3=O)C5=O)C4)cc2)cc1NC(=O)c1cccc(C(F)(F)F)n1 (stereo not shown) [Compound A224, N-(3-carbamoyl-1-(4-((2-(2-(2,6-dioxopiperidin-3-yl)-1,3-dioxoisoindolin-5-yl)-2,7-diazaspiro[3.5]nonan-7-yl)methyl)phenyl)-1H-pyrazol-4-yl)-6-(trifluoromethyl)picolinamide]

Structure (SMILES): NC(=O)c1nn(-c2ccc(N3CCN(CC4CCN(c5ccc6c(c5)C(=O)N(C5CCC(=O)NC5=O)C6=O)C4)CC3)cc2)cc1NC(=O)c1cccc(C(F)(F)F)n1 (stereo not shown) [Compound A227]
pIC50 (IL-6): > 8.00 | DC50 (IRAK4 [1]): < 100 nM | Dmax (IRAK4 [1]): > 60%

Structure (SMILES): NC(=O)c1nn(-c2ccc(N3CCC(NCC4CCN(c5ccc6c(c5)C(=O)N(C5CCC(=O)NC5=O)C6=O)C4)CC3)cc2)cc1NC(=O)c1cccc(C(F)(F)F)n1 (stereo not shown) [Compound A228]
pIC50 (IL-6): > 8.00 | DC50 (IRAK4 [1]): < 100 nM | Dmax (IRAK4 [1]): > 60%

Structure (SMILES): Cn1c(=O)n(C2CCC(=O)NC2=O)c2cccc(C#CCOC3CCN(CC4CCC(n5cc(NC(=O)c6cnn7ccc(N8CC9CC8CO9)nc67)c(C(F)F)n5)CC4)CC3)c21 (stereo not shown) [Control compound 1, reference compound]
AUC ([2]; 10 mg/kg): 428 ng·h/mL | Cmax ([2]; 10 mg/kg): 98 ng/mL | half-life ([2]; 10 mg/kg): 4 h | F [2, 4]: 8%

Structure (SMILES): Cn1c(=O)n(C2CCC(=O)NC2=O)c2cccc(C#CCOC3CCN(C[C@H]4CC[C@H](n5cc(NC(=O)c6cnn7ccc(N8C[C@H]9C[C@@H]8CO9)nc67)c(C(F)F)n5)CC4)CC3)c21 (stereo partly shown) [KT-474]
safety and tolerability (IRAK4 [3]): favorable safety and tolerability

Source: patent EP4763839A1 (Pamplona Therapeutics (Shenzhen) Co., Ltd., priority 2023, dated 2025)
